What is called MBC is the lowest tested concentration that kills the bacteria rather than only halting them. Read a high MBC as less potent killing.

Read-outs that look alike come from different tables or passages of the source. Positions of bridges follow the written chain, without caps; N, C: chain ends. No end group written: not given here. Some results are limits rather than exact numbers.

Data on two compounds can be found in article PMC8194028, “Engineering and characterization of human β-defensin-3 and its analogues and microcin J25 peptides against Mannheimia haemolytica and bovine neutrophils” (Veterinary Research, 2021).

The test system of one test is M. haemolytica. Put plainly: Inhibition of visible growth (MIC assay, optical density method). The note with it: 10 000–25 000 bacteria/well; compared with control wells. Type of test: cell-based, Mannheimia haemolytica. The protocol:
(§1) Wild-type HBD3, its analogues, and MccJ25 were tested against M. haemolytica-A1 using optical density method and colony count assay. Briefly, an aliquot (5 µL) from bacteria suspension stored at −80 °C was put in 5 mL BHI broth at 37 °C for 18 h. An aliquot (10 µL) from this overnight culture was added to fresh BHI broth and incubated at 37 °C for a further 5 h to obtain mid-log phase bacteria. The culture was then centrifuged for 10 min at 800 g at 4 °C. The supernatant was discarded and the bacterial pellet was resuspended in cold, sterile sodium phosphate buffer (SPB) and washed again at 800g for 10 min at 4 °C. The pellet was resuspended in 5 mL SPB. To calculate the number of CFU/mL in the 5 h culture, six successive tenfold dilutions were made. From the last dilution 100 µL was plated in duplicate on petri dishes containing BHI agar and incubated for 24 h. After 24 h the colonies were counted in the two petri dishes and then averaged. Total number of colonies was the average number of colonies multiplied by the dilution factor.
All assays were carried out in sterile 96-well polypropylene flat-bottomed plates using a broth microdilution method. Two-fold serial dilutions of peptide were made in SPB, and 50 µL of each concentration of peptide was added to the wells of the assay plate. […]

For another test, the system named is M. haemolytica-A1. It is filed as cell-based, Mannheimia haemolytica. To be noted: for No. of CFU: final inoculum 5 × 10^5 cfu/mL, one of three experiments. The protocol: as §1
All assays were carried out in sterile 96-well polypropylene flat-bottomed plates using a broth microdilution method. Two-fold serial dilutions of peptide were made in SPB, and 50 µL of each concentration of peptide was added to the wells of the assay plate. […] Positive control wells contained 50 µL of the bacteria with 50 µL of 64 µg/mL ampicillin and negative control wells contained 50 µL of SPB and 50 µL bacterial suspension. Sterility control well contained 100 µL BHI broth to test and ensure that broth was not contaminated.
The plates were sealed with aluminum foil and were incubated at 37 °C for 2 h then 50 µL of the contents of the well were pipetted on BHI agar plates and incubated for 24 h. The bactericidal activity was expressed as the MBC which is the concentration at which 99.9% of the colonies are killed and the Lethal dose 50 (LD50) at which 50% or more bacteria are killed. All experiments were run in triplicates.
Peptides HBD3, its analogues and Mccj25 were assessed for Minimum bactericidal concentration (MBC). […] All the peptides have shown intermediate to potent killing activity towards M. haemolytica (Figures 2, 3). […] However, some published studies have taken final inoculum in the range of 10^4–10^5 cfu/mL [28].

Test [1] deals with bovine neutrophils. Nature of the test: Chemotaxis assay, 48-well Boyden chamber. Type of test: cell-based, cattle. The note with it: peptide 50.0 μg/mL in lower well; 20 min at 37 °C; three independent experiments; ANOVA with Dunnett, P < 0.05. The protocol:
(§2) Neutrophils were isolated from cattle using established methods and approved by the University of Saskatchewan’s Committee on Animal Care. For each individual animal, blood was pooled into 50 mL tubes and diluted with an equal volume of PBS then 12.5 mL of the diluted blood was layered over 10 mL of Ficoll Paque PLUS (Sigma-Aldrich, St. Louis, USA) while taking care to preserve the interface between the two liquids. Following centrifugation at 400 g for 30 min at 20 °C with the brake turned off, the lymphocyte layer was discarded along with Ficoll and plasma. The pellet was washed in 20 mL PBS with centrifugation at 500 g with low brake for 10 min. The supernatant was discarded and the pellet was suspended in equal volume of sterile water and gently mixed for 20 s followed by addition of equal volume of 1.8% NaCl to restore tonicity. The mixture was centrifuged at 500 g for 10 min and followed by another washing and centrifugation at 4 °C. The resulting neutrophil pellet was resuspended in PBS. Bovine neutrophils, collected in the above manner had more than 92% purity, and their viability was greater than 95% based on Trypan blue exclusion assay. Therefore, we use the term neutrophils in the manuscript.
We used fMLP ([…]) as the chemoattractant. […] The cells within the filter pores were then counted in five random fields under light microscope at 40×. […]

In test [2] the test system is bovine neutrophils. Nature of the test: Migration inhibition assay (neutrophil migration towards fMLP). It is filed as cell-based, cattle. To be noted: neutrophils with 50.0 μg/mL peptide in upper well; fMLP 114 nM in lower well; 20 min at 37 °C; three independent experiments. As to the method:
as §2
Since peptides can be immunomodulatory, migration inhibition was carried out to determine if the peptides inhibit neutrophil migration. […]

Test [3] deals with 28 species and 55 strains of Gram-positive cocci and Gram-negative fermentative and non-fermentative rods. The arrangement: method as in PMID 12709350. To be noted: final bacterial inoculum 10^4 to 10^5/mL; cited from earlier work.

Regarding `CC1(C)S[C@@H]2[C@H](NC(=O)[C@H](N)c3ccccc3)C(=O)N2[C@H]1C(=O)O` [Ampicillin], the “Inhibition of visible growth of M. haemolytica” value with M. haemolytica was “no growth”.
“GIINTLQKYYCRVRGGRCAVLSCLPKEEQIGKCSTRGRKCCRRKK (disulfide 11-40, 18-33, 23-41 (inferred)) [HBD3, Human β-Defensin 3, reference compound]” returned an LD50 in the test with M. haemolytica-A1 (2 h) of 6.3 µg/mL. In the test on M. haemolytica-A1 (2 h), this compound came in with an MBC of 50.0 µg/mL. Further, the “Sensitivity of M. haemolytica to the peptide (class by MBC)” value with M. haemolytica-A1 (MBC assay, classification of ref 28) is reported as “intermediately sensitive (as intermediately sensitive if MBC levels were 10–100 μg/mL)”. Besides, the “No. of CFU” value with M. haemolytica-A1 (peptide 0.8 μg/mL, well row A (duplicate 1)) is on record as >400 CFU; with M. haemolytica-A1 (peptide 0.8 μg/mL, well row B (duplicate 2)) it was >400 CFU; in the test with M. haemolytica-A1 (peptide 1.6 μg/mL, well row A (duplicate 1)) it was >400 CFU; with M. haemolytica-A1 (peptide 1.6 μg/mL, well row B (duplicate 2)) it was >400 CFU; with M. haemolytica-A1 (peptide 3.1 μg/mL, well row A (duplicate 1)), >400 CFU; in the test with M. haemolytica-A1 (peptide 3.1 μg/mL, well row B (duplicate 2)), >400 CFU. Further, the “No. of CFU” value in the test with M. haemolytica-A1 (peptide 6.3 μg/mL, well row A (duplicate 1)) amounted to 210 CFU; in the test with M. haemolytica-A1 (peptide 6.3 μg/mL, well row B (duplicate 2)), 390 CFU; in the test on M. haemolytica-A1 (peptide 12.5 μg/mL, well row A (duplicate 1)), 42 CFU; in the test on M. haemolytica-A1 (peptide 12.5 μg/mL, well row B (duplicate 2)) it was 101 CFU; in the test with M. haemolytica-A1 (peptide 25.0 μg/mL, well row A (duplicate 1)), 31 CFU; in the test with M. haemolytica-A1 (peptide 25.0 μg/mL, well row B (duplicate 2)) it was 9 CFU. Also, the “No. of CFU” value in the test on M. haemolytica-A1 (peptide 50.0 μg/mL, well row A (duplicate 1)) is 0 CFU; in the test on M. haemolytica-A1 (peptide 50.0 μg/mL, well row B (duplicate 2)) it was 0 CFU; in the test on M. haemolytica-A1 (peptide 100.0 μg/mL, well row A (duplicate 1), 2 h 37 °C, 50 μL plated, 24 h) it was 0 CFU; with M. haemolytica-A1 (peptide 100.0 μg/mL, well row B (duplicate 2)) it was 0 CFU. For the same compound, the “Chemotaxis of bovine neutrophils towards peptide (migrated neutrophils vs PBS)” value in the test on bovine neutrophils [1] is listed as “chemotactic”. For the same compound, the “Effect of peptide on neutrophil migration towards fMLP” value with bovine neutrophils [2] is “none of the peptides inhibited migration”. Also, in test [3], the “MBC, three strains out of 55 tested (intermediate susceptibility)” value is 50.0 µg/mL.
